Measurements published in patent publication US10435415B2, “Substituted tetrahydrocarbazole and carbazole carboxamide compounds” (BRISTOL-MYERS SQUIBB COMPANY, priority 2013, dated 2019).
Read-outs that look alike come from different tables or passages of the source.

Columns and labels:
human recombinant Btk = human recombinant Btk (Homo sapiens (Human), UniProt Q06187); test: Human Recombinant Btk Enzyme Assay; type: biochemical
[1] = system: BCR-stimulated CD69 expression on B cells in human whole blood; test: Whole Blood Assay of BCR-Stimulated CD69 Expression on B Cells; type: cell-based
Jak2 tyrosine kinase = Jak2 tyrosine kinase (Homo sapiens (Human), UniProt O60674); test: Jak2 Tyrosine Kinase Assay; type: biochemical; details: selectivity of Btk over Jak2
Chain of Jak2 tyrosine kinase (O60674 whole entry): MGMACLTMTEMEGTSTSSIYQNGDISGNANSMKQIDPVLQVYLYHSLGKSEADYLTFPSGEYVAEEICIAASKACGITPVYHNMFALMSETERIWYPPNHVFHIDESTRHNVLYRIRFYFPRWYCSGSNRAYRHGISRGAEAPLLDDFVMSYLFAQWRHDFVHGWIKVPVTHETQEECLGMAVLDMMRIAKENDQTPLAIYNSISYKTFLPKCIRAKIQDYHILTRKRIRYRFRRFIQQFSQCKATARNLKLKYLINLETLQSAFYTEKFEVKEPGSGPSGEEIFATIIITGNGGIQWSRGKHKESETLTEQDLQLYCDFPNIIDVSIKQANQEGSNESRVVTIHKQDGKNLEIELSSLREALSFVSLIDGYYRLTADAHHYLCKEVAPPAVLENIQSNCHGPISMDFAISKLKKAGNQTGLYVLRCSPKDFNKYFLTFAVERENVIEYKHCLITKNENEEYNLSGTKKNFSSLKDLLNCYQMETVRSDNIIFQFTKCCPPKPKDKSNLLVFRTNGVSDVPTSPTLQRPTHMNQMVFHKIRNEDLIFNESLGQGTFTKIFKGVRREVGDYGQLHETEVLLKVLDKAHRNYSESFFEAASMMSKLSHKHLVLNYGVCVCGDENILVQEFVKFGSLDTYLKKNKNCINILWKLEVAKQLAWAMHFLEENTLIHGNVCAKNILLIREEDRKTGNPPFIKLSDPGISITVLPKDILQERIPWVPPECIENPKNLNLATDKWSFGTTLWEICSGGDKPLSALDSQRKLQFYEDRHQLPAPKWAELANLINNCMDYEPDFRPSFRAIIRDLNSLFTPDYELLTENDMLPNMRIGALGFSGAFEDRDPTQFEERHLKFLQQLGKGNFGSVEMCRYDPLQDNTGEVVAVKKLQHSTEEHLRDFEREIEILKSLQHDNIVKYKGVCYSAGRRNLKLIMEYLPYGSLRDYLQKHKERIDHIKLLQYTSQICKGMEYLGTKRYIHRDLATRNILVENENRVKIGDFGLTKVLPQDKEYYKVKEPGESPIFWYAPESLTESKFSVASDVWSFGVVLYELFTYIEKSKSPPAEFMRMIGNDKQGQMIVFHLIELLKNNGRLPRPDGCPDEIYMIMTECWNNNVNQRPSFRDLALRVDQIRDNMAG

Chain of human recombinant Btk (Q06187 whole entry): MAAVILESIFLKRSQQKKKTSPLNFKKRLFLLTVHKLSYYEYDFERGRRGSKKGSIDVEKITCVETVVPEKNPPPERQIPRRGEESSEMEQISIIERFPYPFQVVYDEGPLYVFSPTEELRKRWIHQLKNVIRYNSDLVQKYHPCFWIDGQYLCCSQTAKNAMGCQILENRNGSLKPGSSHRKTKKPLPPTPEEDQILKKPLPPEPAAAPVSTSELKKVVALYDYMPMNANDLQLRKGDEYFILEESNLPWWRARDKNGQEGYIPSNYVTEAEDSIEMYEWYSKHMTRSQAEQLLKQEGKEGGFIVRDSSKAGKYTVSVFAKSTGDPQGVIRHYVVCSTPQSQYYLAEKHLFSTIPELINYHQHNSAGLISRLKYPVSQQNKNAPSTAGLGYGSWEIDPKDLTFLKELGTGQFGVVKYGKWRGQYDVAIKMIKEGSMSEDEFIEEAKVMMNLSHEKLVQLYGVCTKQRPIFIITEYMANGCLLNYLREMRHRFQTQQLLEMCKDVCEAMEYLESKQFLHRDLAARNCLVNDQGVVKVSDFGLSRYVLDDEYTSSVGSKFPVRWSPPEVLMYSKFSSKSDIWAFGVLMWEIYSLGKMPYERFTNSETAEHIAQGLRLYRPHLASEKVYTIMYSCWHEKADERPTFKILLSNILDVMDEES

Compound | Ratio of Jak2/Btk IC50 values (Jak2 tyrosine kinase) | further results
3-Chloro-4-(R)-(2-chloro-3-(8-fluoro-1-methyl-2,4-dioxo-1,2-dihydroquinazolin-3(4H)-yl)phenyl)-7-(2-hydroxypropan-2-yl)-9H-carbazole-1-carboxamide [Example 45] | – | IC50 (human recombinant Btk): 0.45 nM; IC50 [1]: 68 nM
Cc1c(-c2c(Cl)cc(C(N)=O)c3[nH]c4cc(C(C)(C)O)ccc4c23)cccc1-n1c(=O)[nH]c2c(F)cc(F)cc2c1=O (single isomer, unassigned) [Example 48] | 3300 | –
Cc1c(-c2c(F)cc(C(N)=O)c3[nH]c4cc(C(C)(C)O)ccc4c23)cccc1-n1c(=O)[nH]c2c(F)cc(F)cc2c1=O (single isomer, unassigned) [Example 50] | 3800 | –
Cc1c(-c2c(F)cc(C(N)=O)c3[nH]c4c(c23)CC[C@H](C(C)(C)O)C4)cccc1-n1c(=O)[nH]c2c(F)cccc2c1=O (single isomer, unassigned) [Example 59] | – | IC50 [1]: 260 nM
Cc1c(-c2c(F)cc(C(N)=O)c3[nH]c4cc(C(C)(C)O)ccc4c23)cccc1-n1c(=O)[nH]c2c(F)cc(F)cc2c1=O [Example 49] | >2600 | –

Continued, in another order:

Ratio of Jak2/Btk IC50 values (Jak2 tyrosine kinase) | Compound | further results
>6700 | Cc1c(-c2c(F)cc(C(N)=O)c3[nH]c4cc(C(C)(C)O)ccc4c23)cccc1-n1c(=O)[nH]c2cc(F)ccc2c1=O (single isomer, unassigned) [Example 51] | –
3400 | Cc1c(-c2c(F)cc(C(N)=O)c3[nH]c4cc(C(C)(C)O)ccc4c23)cccc1-n1c(=O)[nH]c2c(Cl)cccc2c1=O (single isomer, unassigned) [Example 54] | IC50 ([1]; Homo sapiens, B-cell): 10 nM
1600 | Cc1c(-c2c(C#N)cc(C(N)=O)c3[nH]c4cc(C(C)(C)O)ccc4c23)cccc1-n1c(=O)cc2c(Cl)cccn2c1=O (single isomer, unassigned) [Example 72] | –
2200 | Cc1c(-c2c(F)cc(C(N)=O)c3[nH]c4cc(C(C)(C)O)ccc4c23)cccc1-n1c(=O)[nH]c2c(F)cc(F)cc2c1=O (single isomer, unassigned) [Example 73] | –
